Laboratory results published in patent US8366962B2, “Polymerizable liquid crystal compounds having oxiranyl group, polymerizable liquid crystal compositions and polymers” (JNC Corporation, priority 2009, dated 2013).

Experiment: Solubility in PGMEA/MMP: deposition of crystals when the solution is allowed to stand at room temperature
Type: physicochemical
Conditions: 70/30 by weight mixture with compound (M1-19-1), 30% by weight solution in PGMEA/MMP=9/1 by volume
Source text: Incidentally, PGMEA and MMP stand for propylene glycol […] ether acetate and methyl 3-methoxypropionate, respectively.

## Cc1cc(OC(=O)c2ccc(OCCCCOCC3(C)CO3)cc2)ccc1OC(=O)c1ccc(OCCCCOCC2(C)CO2)cc1 (stereo not shown) [Compound (1-1-14)]
  time allowed to stand without deposition of crystals: more than 3 days
